Experimental data taken from PMC10899790, “A bromodomain-independent mechanism of gene regulation by the BET inhibitor JQ1: direct activation of nuclear receptor PXR” (Nucleic Acids Research, 2023).

Key:
PXR LBD [1] = biological target: T1, PXR LBD (Homo sapiens, UniProt O75469); assay: TR-FRET PXR LBD NCoR recruitment and release assays; format: biochemical; conditions: TR-FRET in the presence of 1 μM SPA70
T1 construct: GST-PXR LBD protein (cat. # PV4841) were purchased from Thermo Fisher Scientific; purchased Thermo Fisher Scientific PV4841
T1 sequence (O75469 146-433 limits assumed): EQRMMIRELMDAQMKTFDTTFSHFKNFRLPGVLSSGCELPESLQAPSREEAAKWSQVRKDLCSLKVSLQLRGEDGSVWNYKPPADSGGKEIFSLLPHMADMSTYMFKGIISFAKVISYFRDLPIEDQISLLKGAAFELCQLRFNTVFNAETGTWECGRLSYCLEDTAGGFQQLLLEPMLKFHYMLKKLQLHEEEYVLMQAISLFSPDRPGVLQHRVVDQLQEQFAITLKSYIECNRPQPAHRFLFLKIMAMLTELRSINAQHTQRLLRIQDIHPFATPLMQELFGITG
Method: The TR-FRET PXR LBD NCoR recruitment assay was similarly performed, but with 500 nM FAM-NCoR peptide. Data were normalized using equations (2) and (3) with 10 μM SPA70 in place of T0901317 as the control. For the NCoR release assay, all wells contained 1 μM SPA70 to induce PXR LBD interaction with NCoR, and dose responses of agonists were used to disrupt the PXR LBD/SPA70/NCoR complex. In the release assay, 1 μM SPA70 alone served as the 100% control, and DMSO alone served as the 0% control. NCoR release assay wells contained 0.4% DMSO due to the two-compound addition.

[2] = LC–MS/MS test of JQ1 stability in crystallization solution; format: physicochemical; conditions: 1 μM JQ1, crystallization solution pH 7.4, 20°C
Method: An Echo 650 Acoustic Liquid Handler was used to dispense 50 nl/well of 1 mM JQ1 into 96-well assay plates (Corning Inc., one plate per time point, six replicate wells per time point). Crystallization solution (50 μl) was added to each well to yield final concentrations of 1 μM JQ1 and 0.1% DMSO. […] This composition matched the final composition of a crystallization drop containing a 1:1 ratio of protein to reservoir solution. To the 0-day plate, 100 μl cold acetonitrile (ACN) containing 400 ng/ml warfarin (Fluka Chemical Corporation) as the internal standard was immediately added to each well. The remaining plates were incubated at 20°C for 1–8 days followed by quenching with 100 μl cold ACN containing 400 ng/ml warfarin. Quenched samples were sealed and stored at -20°C until analysis. On the day of analysis, plates were thawed, shaken at 600 rpm for 10 min, and centrifuged at 2000 × g for 10 min. The supernatants (20 μl) were transferred to a new analytical 96-well plate (Corning Inc.) and diluted with 180 μl 50% ACN in Milli-Q water. Chromatographic separation was performed on an ACQUITY UPLC BEH C18 column (1.7 μm, 2.1 mm × 50 mm) (Waters Corporation) using the Triple Quad 6500 System (AB Sciex). The injection volume was 7 μl. […] Data were acquired using Analyst Software (AB Sciex, version 1.6.3) and analyzed using MultiQuant Software (AB Sciex, version 3.0.3).

CMV promoter = assay: CMV-Renilla luciferase reporter; format: cell-based, human; conditions: HepG2, 24 h; fold change relative to DMSO
Method: HepG2 cells (7.5 × 10^5/well) were plated in six-well tissue culture-treated plates. The following day, cells were co-transfected with pGL3-CYP3A4-luc (2 μg/well), pRL-CMV (200 ng/well) and 100 ng/well of either empty vector (pcDNA3), pcDNA3-FLAG-PXR, pCMV6-mPXR or pGL4.53-PGK-PXR using Lipofectamine 3000 (Thermo Fisher Scientific). Twenty-four hours after transfection, cells were trypsinized and suspended in phenol red-free DMEM (Thermo Fisher Scientific) supplemented with 5% charcoal/dextran-treated FBS (HyClone), and 1 × 10^4 cells/well in 25 μl media were added to white 384-well plates. […] After 24 h, the Dual-Glo Luciferase Assay System (Promega) and EnVision microplate reader (PerkinElmer) were used to measure firefly and Renilla luciferase activities. CMV-driven Renilla luciferase was used as an indicator of general transcriptional modulation by the test compounds and is plotted as fold change (FC) relative to DMSO controls. Assays utilizing pGL4.54[luc2/TK], pGL4.53[luc2/PGK], or pGL4.13[luc2/SV40] were similarly performed and normalized.

PXR LBD [3] = biological target: T2, PXR LBD (Homo sapiens, UniProt O75469); assay: Cellular PXR LBD SRC-1 recruitment assay (NanoBiT); format: cell-based; conditions: HepG2, NanoBiT, 30 min; 100 nM T0901317 or 5 μM other compound
T2 construct: pcDNA3-SmBiT-PXR LBD (residues 139–434); expressed in transfected cells; host or cells: HepG2
T2 sequence (O75469 139-434): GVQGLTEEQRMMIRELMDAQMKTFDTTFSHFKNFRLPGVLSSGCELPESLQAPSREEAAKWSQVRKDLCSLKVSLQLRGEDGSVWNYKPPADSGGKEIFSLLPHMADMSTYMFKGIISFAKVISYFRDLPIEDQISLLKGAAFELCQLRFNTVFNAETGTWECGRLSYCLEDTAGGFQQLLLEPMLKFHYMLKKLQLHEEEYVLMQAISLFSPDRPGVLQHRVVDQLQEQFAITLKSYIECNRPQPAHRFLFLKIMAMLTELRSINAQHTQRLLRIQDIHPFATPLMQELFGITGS
T2 sequence (Q15788 621-765 partner limits assumed): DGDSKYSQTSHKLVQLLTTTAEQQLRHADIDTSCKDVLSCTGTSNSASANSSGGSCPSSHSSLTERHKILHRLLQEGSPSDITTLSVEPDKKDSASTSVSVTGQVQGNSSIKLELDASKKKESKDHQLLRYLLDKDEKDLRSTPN
Method: Nano Luciferase Binary Technology (NanoBiT) ([33]) was used to assess the interaction of SRC-1 with PXR LBD in HepG2 cells (Supplementary Figure S4). […] The following day, cells were co-transfected with pcDNA3-SmBiT-PXR LBD (100 ng/well) and pcDNA3-LgBiT-SRC-1 (100 ng/well) using Lipofectamine 3000. Empty vector (pcDNA3, 800 ng/well) was used as carrier DNA due to the low amounts of expression plasmids used. […] After 24 h, 5 μl media containing 2.5% DMSO, 5X Nano-Glo Live Cell Substrate from the Nano-Glo Live Cell Assay System (Promega), and 5× concentration of compound was added, resulting in 0.5% DMSO and either 100 nM T0901317 or 5 μM other compound. The plates were incubated for 30 min at RT, and Nano Luciferase activity was then measured with an EnVision microplate reader.

CYP3A4 = assay: RNA induction in HepaRG: CYP3A4 mRNA (RT-qPCR); conditions: differentiated HepaRG, 24 h
Method: Experiments with HepaRG cells were conducted similarly to previously described ([45]), with modifications. HepaRG cells were seeded in collagen-coated 24-well plates at 5 × 10^5 cells/well in HCM. Cells were differentiated for two weeks with HCM containing 2% DMSO. The cells were then treated with the respective chemicals for 24 h in HCM. The final DMSO concentration for the treatment was 0.5%. Total RNA was isolated from cells with Maxwell 16 LEV SimplyRNA Tissue Kits (Promega), and cDNA was generated from 250 ng of RNA with the SuperScript VILO cDNA Synthesis Kit (Thermo Fisher Scientific). Quantitative real-time polymerase chain reaction (RT-qPCR) was conducted with 2 μl of cDNA using TaqMan Fast Advanced Master Mix (Applied Biosystems) in an Applied Biosystems 7500 Fast Real-Time PCR System. TaqMan gene expression assays specific for CYP3A4 (Hs00604506_m1), PXR (Hs01114267_m1), MYC (Hs00153408_m1) and RNA18S (Hs03928990_g1) were purchased from Thermo Fisher Scientific. Fold induction values were calculated according to the 2^−ΔΔCt method, where ΔCt represents the differences in cycle threshold numbers between the target gene and reference gene and ΔΔCt represents the relative change in these differences between the control and treatment groups ([46]). RNA18S was used as the reference gene for relative quantification of all other genes.

Cc1sc2c(c1C)C(c1ccc(Cl)cc1)=N[C@@H](CC(=O)OC(C)(C)C)c1nnc(C)n1-2 [JQ1, (+)-JQ1]
inhibition of SPA70-mediated NCoR recruitment (NCoR release) (PXR LBD [1]): inhibited SPA70-mediated NCoR recruitment
stability in the crystal growth condition [2]: does not degrade over a period of eight days
CMV-Renilla luciferase reporter expression (CMV promoter): robustly activated Renilla luciferase expression from a CMV promoter
SRC-1 recruitment to PXR LBD in cells (PXR LBD [3]): JQ1 > birabresib > CPI-203
endogenous CYP3A4 mRNA expression (CYP3A4; FC relative to DMSO): modestly induced CYP3A4 mRNA
endogenous CYP3A4 mRNA expression on co-treatment with SPA70 (CYP3A4; co-treated with SPA70): largely diminished
